Here are results for 2 molecules from ChEMBL document CHEMBL5131388, “Discovery of novel brain-penetrant GluN2B NMDAR antagonists via pharmacophore-merging strategy as anti-stroke therapeutic agents” (Eur J Med Chem, 2022).

A short description of series [1]: Neuroprotective activity against NMDA-induced neurotoxicity in Sprague-Dawley rat hippocampal neurons assessed as increase in cell viability at 0.1 uM incubated for 18 hrs followed by NMDA addition and measured after 0.5 hrs by MTT assay. Particulars: time 18.5 hrs. The format is functional, Hippocampal neurone.
Series [2] is described as follows: Neuroprotective activity against NMDA-induced neurotoxicity in Sprague-Dawley rat hippocampal neurons assessed as increase in cell viability at 1 uM incubated for 18 hrs followed by NMDA addition and measured after 0.5 hrs by MTT assay. The format is functional, Hippocampal neurone. Particulars: time 18.5 hrs.
The nature of series [3]: Neuroprotective activity against NMDA-induced neurotoxicity in Sprague-Dawley rat hippocampal neurons assessed as increase in cell viability at 10 uM incubated for 18 hrs followed by NMDA addition and measured after 0.5 hrs by MTT assay. The format is functional, Hippocampal neurone. As to conditions: time 18.5 hrs.
For a further series, the target named is Glutamate NMDA receptor. In words: Displacement of [3H] ifenprodil from Wistar rat glutamate NMDA receptor incubated for 2 hrs by scintillation counting method. The format is protein-complex assay. On the technique in general: In a radioligand displacement assay an active substance lowers the binding of a labelled ligand.
For series [4], the system named is Rattus norvegicus. Description: Neuroprotective activity in Sprague-Dawley rat model of middle cerebral artery occlusion-induced ischemia-reperfusion injury assessed as decrease in neurological score at 20 mg/kg, po measured 24 hrs post injury by TTC staining based histological analysis. The format is functional.
Series [5] has as its system Rattus norvegicus. In words: Neuroprotective activity in Sprague-Dawley rat model of middle cerebral artery occlusion-induced ischemia-reperfusion injury assessed as decrease in cerebral infarction rate at 20 mg/kg, po measured 24 hrs post injury by TTC staining based histological analysis. The format is functional. Also noted: scale not given: the % may be the effect or the level left.

Series [6] in a line: Tmax in Sprague-Dawley rat at 2.5 mg/kg, iv measured up to 24 hrs by LC/MS-MS analysis. It counts as ADME, organism-based. Particulars: in vivo.
The nature of series [7]: Tmax in Sprague-Dawley rat at 10 mg/kg, po measured up to 24 hrs by LC/MS-MS analysis. Particulars: in vivo. It counts as ADME, organism-based.
Series [8] can be described thus: Cmax in Sprague-Dawley rat at 2.5 mg/kg, iv measured up to 24 hrs by LC/MS-MS analysis. The format is ADME, organism-based. Also noted: dose 2.5 mg/kg, time < 24 hrs, route iv. As to conditions: in vivo.
Series [9] is described as follows: Cmax in Sprague-Dawley rat at 10 mg/kg, po measured up to 24 hrs by LC/MS-MS analysis. Particulars: in vivo. The format is ADME, organism-based. More on the design: dose 10 mg/kg, time < 24 hrs, route po.
Series [10] is described as follows: AUClast in Sprague-Dawley rat at 2.5 mg/kg, iv measured up to 24 hrs by LC/MS-MS analysis. It counts as ADME, organism-based. More on the design: dose 2.5 mg/kg, time < 24 hrs, route iv. As to conditions: in vivo.
The nature of series [11]: AUClast in Sprague-Dawley rat at 10 mg/kg, po measured up to 24 hrs by LC/MS-MS analysis. It counts as ADME, organism-based. Also noted: dose 10 mg/kg, time < 24 hrs, route po. As to conditions: in vivo.
Series [12] is described as follows: AUCinf in Sprague-Dawley rat at 2.5 mg/kg, iv measured up to 24 hrs by LC/MS-MS analysis. It counts as ADME, organism-based. Also noted: dose 2.5 mg/kg, time < 24 hrs, route iv. Particulars: in vivo.
The nature of series [13]: AUCinf in Sprague-Dawley rat at 10 mg/kg, po measured up to 24 hrs by LC/MS-MS analysis. It counts as ADME, organism-based. Particulars: in vivo. More on the design: time < 24 hrs, dose 10 mg/kg, route po.
The nature of series [14]: MRTinf in Sprague-Dawley rat at 2.5 mg/kg, iv measured up to 24 hrs by LC/MS-MS analysis. It counts as ADME, organism-based. As to conditions: in vivo.
The nature of series [15]: MRTinf in Sprague-Dawley rat at 10 mg/kg, po measured up to 24 hrs by LC/MS-MS analysis. The format is ADME, organism-based. Particulars: in vivo.
A short description of series [16]: Clearance in Sprague-Dawley rat at 2.5 mg/kg, iv measured up to 24 hrs by LC/MS-MS analysis. It counts as ADME, organism-based. Particulars: in vivo.
Series [17] in a line: Half life in Sprague-Dawley rat at 2.5 mg/kg, iv measured up to 24 hrs by LC/MS-MS analysis. It counts as ADME, organism-based. As to conditions: in vivo.
Series [18] in a line: Half life in Sprague-Dawley rat at 10 mg/kg, po measured up to 24 hrs by LC/MS-MS analysis. The format is ADME, organism-based. Particulars: in vivo.
Series [19] is described as follows: Bioavailability in Sprague-Dawley rat at 2.5 mg/kg, iv measured up to 24 hrs by LC/MS-MS analysis. As to conditions: in vivo. It counts as ADME, organism-based.
A short description of series [20]: Ratio AUClast in Sprague-Dawley rat brain to plasma at 2.5 mg/kg, iv measured up to 24 hrs by LC/MS-MS analysis. It counts as ADME, organism-based. As to conditions: brain and plasma.
Series [21] in a line: Ratio AUClast in Sprague-Dawley rat brain to plasma at 10 mg/kg, po measured up to 24 hrs by LC/MS-MS analysis. The format is ADME, organism-based. Particulars: brain and plasma.
The nature of series [22]: Toxicity in Sprague-Dawley rat assessed as animal death at 300 mg/kg, po administered as repeated dose once daily for 2 weeks. The format is organism-based. Particulars: in vivo, 336 h.
Series [23] is described as follows: Toxicity in Sprague-Dawley rat assessed as change in liver/brain index at 150 to 300 mg/kg, po administered as repeated dose once daily for 2 weeks. The format is organism-based. As to conditions: in vivo, 336 h, dose 150-300 mg/kg.
Series [24] can be described thus: Toxicity in Sprague-Dawley rat assessed as change in kidney/brain index at 150 to 300 mg/kg, po administered as repeated dose once daily for 2 weeks. As to conditions: in vivo, 336 h, dose 150-300 mg/kg. It counts as organism-based.
Series [25] is described as follows: Toxicity in Sprague-Dawley rat assessed as change in spleen/brain index at 150 to 300 mg/kg, po administered as repeated dose once daily for 2 weeks. The format is organism-based. As to conditions: in vivo, 336 h, dose 150-300 mg/kg.
Series [26] is described as follows: Toxicity in Sprague-Dawley rat assessed as change in white blood cell count at 150 to 300 mg/kg, po administered as repeated dose once daily for 2 weeks. The format is organism-based. Particulars: in vivo, 336 h, dose 150-300 mg/kg.
Series [27] in a line: Toxicity in Sprague-Dawley rat assessed as change in ALT level at 150 to 300 mg/kg, po administered as repeated dose once daily for 2 weeks. The format is organism-based. As to conditions: in vivo, 336 h, dose 150-300 mg/kg.
A short description of series [28]: Toxicity in Sprague-Dawley rat assessed as change in AST level at 150 to 300 mg/kg, po administered as repeated dose once daily for 2 weeks. The format is organism-based. As to conditions: in vivo, 336 h, dose 150-300 mg/kg.
A short description of series [29]: Toxicity in Sprague-Dawley rat assessed as change in blood pressure at 150 to 300 mg/kg, po administered as repeated dose once daily for 2 weeks. It counts as organism-based. As to conditions: in vivo, 336 h, dose 150-300 mg/kg.
A short description of series [30]: Toxicity in Sprague-Dawley rat assessed as change in blood glucose level at 150 to 300 mg/kg, po administered as repeated dose once daily for 2 weeks. The format is organism-based. Particulars: in vivo, 336 h, dose 150-300 mg/kg.
Series [31] is described as follows: Toxicity in Sprague-Dawley rat assessed as body weight loss at 300 mg/kg, po administered as repeated dose once daily for 2 weeks. It counts as organism-based. Particulars: in vivo, 336 h.
Series [32] can be described thus: Toxicity in Sprague-Dawley rat assessed as increase in AST level at 300 mg/kg, po administered as repeated dose once daily for 2 weeks. The format is organism-based. As to conditions: in vivo, 336 h.

As to `O=C1OC(CCCN2CCN(Cc3ccc([N+](=O)[O-])cc3)CC2)c2ccccc21` (centres undefined), the Activity in [1] is listed as 66.55%; in [2] it was 79.64%; in series [3], 88.35%; in the series on Rattus norvegicus [4] it was 1.75; with Rattus norvegicus [5], 14.53%. The inhibition constant Ki at Glutamate NMDA receptor stood at 4.55 nM.
On to `O=C1OC(CCCN2CCN(Cc3ccc(C(F)(F)F)cc3)CC2)c2ccccc21` (racemic), for which the time of peak concentration (Tmax) in series [6] was found to be 1.02 min; in series [7] it was 1.5 h. The Activity in [1] (0.1 µM) is reported as 60.14%; in series [2] (1 µM), 78.45%; in series [3] (10 µM), 89.8%; with Rattus norvegicus [4] it was 1.88; in the series on Rattus norvegicus [5] it was 16.08%; in series [22] it was “Non-Toxic”. For the same molecule, the Activity entry in [23], in [24], in series [25], in series [26], in series [27] and in [28] was “Non-Toxic” in each case. Also, the Activity result in series [29] is listed as “Non-Toxic”; in [30], “Non-Toxic”; in series [31], “Toxic”; in [32], “Toxic”. The molecule also came in with a Ki on Glutamate NMDA receptor of 3.26 nM. Moreover, the Cmax in series [8] is 2360 ng/mL; in series [9] it was 972 ng/mL. Further, the AUC(0-t) at 24 h in series [10] was found to be 1450 ng·h/mL; in series [11] it was 3670 ng·h/mL. In addition, the AUC(0-inf) came out at 1580 ng·h/mL in series [12] and 4070 ng·h/mL in series [13]. Also, the MRT inf in series [14] amounted to 1.68 h; in [15], 3.25 h. Also, the clearance in series [16] was 29.5 mL/min/kg. Moreover, the half-life in series [17] was 1.73 h; in series [18] it was 1.88 h. Besides, the bioavailability in series [19] was determined as 63.4%. For the same molecule, the Kp at 24 h in [20] worked out at 0.71; in series [21], 0.85.

As a reminder, the Ki is the equilibrium dissociation constant of an inhibitor or competing ligand from its target. As a reminder, the Tmax is the time at which the peak concentration occurs. One may read the Cmax as the highest concentration seen after dosing. By AUC(0-t) is commonly meant exposure summed from dosing to a finite time, without extrapolation to infinity. One may read the AUC(0-inf) as the area under the concentration-time curve extrapolated to infinity. A word on the MRT inf: it is a mean duration of stay, worked out from the concentration-time curve. Usually clearance stands for a measure of how efficiently the substance is removed, as volume per time. For orientation: half-life means the time needed for the level to fall by half in the phase considered. By bioavailability is commonly meant the share of a dose that reaches the circulation, judged against a reference dose that is usually intravenous. In general, Kp refers to the ratio of the level in a tissue or fluid to that in plasma or blood.
